In paper PMC12715762, “Discovery of VU6052254: A Novel, Potent M1 Positive Allosteric Modulator” (ACS Chemical Neuroscience, 2025):
Entries after “also recorded” stand apart in the source; their conditions may differ.

Tests used:
Dopamine D3 = Dopamine D3 (Homo sapiens, UniProt P35462); assay: Eurofins radioligand binding
Calcium Channel N-Type = Calcium Channel N-Type (Rattus norvegicus, UniProt Q02294); assay: Eurofins radioligand binding
Transporter, GABA = Transporter, GABA (Rattus norvegicus, UniProt P23978); assay: Eurofins radioligand binding
CYP450 = assay: time-dependent CYP450 inhibition; assay type: in vitro ADME; conditions: result in words
[1] = molecular target: Leukotriene, Cysteinyl CysLT1 (Homo sapiens, UniProt Q9Y271); assay: Eurofins radioligand binding
Phorbol Ester = assay: Eurofins radioligand binding; conditions: Mouse
1A2 = assay: CYP450 induction in human hepatocytes (three donors); assay type: cell-based; conditions: 10 μM, human hepatocytes from three donors
Adrenergic α1B = Adrenergic α1B (Homo sapiens, UniProt P35368); assay: Eurofins radioligand binding
Purinergic P2X = assay: Eurofins radioligand binding; conditions: Rat
Bradykinin B2 = Bradykinin B2 (Homo sapiens, UniProt P30411); assay: Eurofins radioligand binding
[2] = IV/PO pharmacokinetics (NHP); assay type: in vivo; conditions: NHP (cyno)
Muscarinic M3 = Muscarinic M3 (Homo sapiens, UniProt P20309); assay: Eurofins radioligand binding
Dopamine D2S = Dopamine D2S (Homo sapiens, UniProt P14416); assay: Eurofins radioligand binding
4 strain = assay: AMES assay (4 strain, with and without S9); assay type: cell-based
Opiate δ1 (OP1, DOP) = Opiate δ1 (OP1, DOP) (Homo sapiens, UniProt P41143); assay: Eurofins radioligand binding
Estrogen ERα = Estrogen ERα (Homo sapiens, UniProt P03372); assay: Eurofins radioligand binding
[3] = plasma protein binding, equilibrium dialysis (dog); assay type: in vitro ADME; conditions: pH 7.4, dog (d), read-out: fu,plasma
Procedure: Plasma protein binding and Brain homogenate binding: Determination of fraction unbound (f u) in plasma was conducted in vitro via equilibrium dialysis using HTDialysis (HTD) membrane plates. The top half of the plate was filled with 100 uL of Dubelco’s Phosphate Buffered Saline, pH 7.4 (DPBS). Compounds were diluted into plasma from each species (5 µM final concentration), which was aliquoted in triplicate to the ‘bottom half’ of the prepared HTD plate wells. The HTD plate was sealed and incubated for 6 hours at 37 °C. Following incubation, each well (both top and bottom halves) were transferred (20 µL) to the corresponding wells of a 96-shallow-well (V-bottom) plate. […]
The unbound fraction (f u) was calculated following the equation below, and mean values for each species were calculated from 3 replicates.
A similar approach was used to determine the degree of brain homogenate binding, which employed the same methodology and procedure with the following modifications: 1) a final compound concentration of 1 μM was used, 2) naïve rat brains were homogenized in DPBS (1:3 composition of brain: DPBS, w/w) using a Mini-Bead Beater™ machine in order to obtain brain homogenate, which was then treated in the same manner as the plasma samples in the previously described plasma protein binding assay. Fraction unbound for both plasma and brain samples was determined using Equation 4. […]

Neuropeptide Y Y2 = Neuropeptide Y Y2 (Homo sapiens, UniProt P49146); assay: Eurofins radioligand binding
[4] = molecular target: Transporter, Serotonin (SERT) (Homo sapiens, UniProt P31645); assay: Eurofins radioligand binding
rat M1 = molecular target: T1, rat M1 (Rattus norvegicus, UniProt P08482); assay: M1 agonist calcium mobilization assay (rat); assay type: cell-based
T1 construct: expressed in transfected cells
T1 sequence (P08482 1-460): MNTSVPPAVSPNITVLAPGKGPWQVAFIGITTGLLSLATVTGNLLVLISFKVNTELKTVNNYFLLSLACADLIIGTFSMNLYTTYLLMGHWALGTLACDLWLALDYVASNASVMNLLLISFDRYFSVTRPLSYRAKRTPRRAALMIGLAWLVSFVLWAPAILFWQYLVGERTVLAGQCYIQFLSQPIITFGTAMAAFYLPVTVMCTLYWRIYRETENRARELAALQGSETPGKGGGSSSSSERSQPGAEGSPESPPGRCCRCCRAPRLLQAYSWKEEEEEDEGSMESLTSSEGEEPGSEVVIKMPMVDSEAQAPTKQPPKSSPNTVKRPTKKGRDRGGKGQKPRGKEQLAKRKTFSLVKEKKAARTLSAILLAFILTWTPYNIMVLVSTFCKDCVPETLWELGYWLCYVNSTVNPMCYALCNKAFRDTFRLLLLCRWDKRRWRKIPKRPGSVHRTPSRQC

Opiate κ (OP2, KOP) = Opiate κ (OP2, KOP) (Homo sapiens, UniProt P41145); assay: Eurofins radioligand binding
[5] = molecular target: Nicotinic Acetylcholine α1, Bungarotoxin (Homo sapiens, UniProt P02708+P07510+Q07001); assay: Eurofins radioligand binding; conditions: read-out: % Inhibition at 10 µM
2B6 = assay: CYP450 induction in human hepatocytes (three donors); assay type: cell-based; conditions: 10 μM, human hepatocytes from three donors
[6] = molecular target: Nicotinic Acetylcholine α3β4 (Homo sapiens, UniProt P30926+P32297); assay: Eurofins radioligand binding
3A4 = assay: CYP induction repeated at a different CRO (mRNA and protein); assay type: cell-based; conditions: result in words
Serotonin (5-HT2B) = Serotonin (5-HT2B) (Homo sapiens, UniProt P41595); assay: Eurofins radioligand binding
[7] = cynomolgus monkey, plasma, 3 mg/kg po

Chain of Transporter, Serotonin (SERT) (P31645 whole entry): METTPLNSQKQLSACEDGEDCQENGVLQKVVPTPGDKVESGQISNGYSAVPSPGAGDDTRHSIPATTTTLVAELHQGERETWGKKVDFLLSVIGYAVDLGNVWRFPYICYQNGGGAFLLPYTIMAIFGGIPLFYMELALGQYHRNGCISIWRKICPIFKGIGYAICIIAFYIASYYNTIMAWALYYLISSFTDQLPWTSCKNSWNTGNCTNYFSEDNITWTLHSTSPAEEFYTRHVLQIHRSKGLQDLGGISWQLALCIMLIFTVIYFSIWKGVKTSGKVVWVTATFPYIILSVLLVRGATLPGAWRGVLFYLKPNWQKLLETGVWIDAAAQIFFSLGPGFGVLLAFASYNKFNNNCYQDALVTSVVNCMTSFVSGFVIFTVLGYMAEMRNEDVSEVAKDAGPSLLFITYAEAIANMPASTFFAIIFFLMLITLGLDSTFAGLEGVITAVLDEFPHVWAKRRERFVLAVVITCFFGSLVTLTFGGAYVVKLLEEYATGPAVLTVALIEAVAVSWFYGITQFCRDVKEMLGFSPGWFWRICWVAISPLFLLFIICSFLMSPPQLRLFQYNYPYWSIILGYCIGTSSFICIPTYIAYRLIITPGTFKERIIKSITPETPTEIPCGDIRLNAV
Chain of Calcium Channel N-Type (Q02294 whole entry): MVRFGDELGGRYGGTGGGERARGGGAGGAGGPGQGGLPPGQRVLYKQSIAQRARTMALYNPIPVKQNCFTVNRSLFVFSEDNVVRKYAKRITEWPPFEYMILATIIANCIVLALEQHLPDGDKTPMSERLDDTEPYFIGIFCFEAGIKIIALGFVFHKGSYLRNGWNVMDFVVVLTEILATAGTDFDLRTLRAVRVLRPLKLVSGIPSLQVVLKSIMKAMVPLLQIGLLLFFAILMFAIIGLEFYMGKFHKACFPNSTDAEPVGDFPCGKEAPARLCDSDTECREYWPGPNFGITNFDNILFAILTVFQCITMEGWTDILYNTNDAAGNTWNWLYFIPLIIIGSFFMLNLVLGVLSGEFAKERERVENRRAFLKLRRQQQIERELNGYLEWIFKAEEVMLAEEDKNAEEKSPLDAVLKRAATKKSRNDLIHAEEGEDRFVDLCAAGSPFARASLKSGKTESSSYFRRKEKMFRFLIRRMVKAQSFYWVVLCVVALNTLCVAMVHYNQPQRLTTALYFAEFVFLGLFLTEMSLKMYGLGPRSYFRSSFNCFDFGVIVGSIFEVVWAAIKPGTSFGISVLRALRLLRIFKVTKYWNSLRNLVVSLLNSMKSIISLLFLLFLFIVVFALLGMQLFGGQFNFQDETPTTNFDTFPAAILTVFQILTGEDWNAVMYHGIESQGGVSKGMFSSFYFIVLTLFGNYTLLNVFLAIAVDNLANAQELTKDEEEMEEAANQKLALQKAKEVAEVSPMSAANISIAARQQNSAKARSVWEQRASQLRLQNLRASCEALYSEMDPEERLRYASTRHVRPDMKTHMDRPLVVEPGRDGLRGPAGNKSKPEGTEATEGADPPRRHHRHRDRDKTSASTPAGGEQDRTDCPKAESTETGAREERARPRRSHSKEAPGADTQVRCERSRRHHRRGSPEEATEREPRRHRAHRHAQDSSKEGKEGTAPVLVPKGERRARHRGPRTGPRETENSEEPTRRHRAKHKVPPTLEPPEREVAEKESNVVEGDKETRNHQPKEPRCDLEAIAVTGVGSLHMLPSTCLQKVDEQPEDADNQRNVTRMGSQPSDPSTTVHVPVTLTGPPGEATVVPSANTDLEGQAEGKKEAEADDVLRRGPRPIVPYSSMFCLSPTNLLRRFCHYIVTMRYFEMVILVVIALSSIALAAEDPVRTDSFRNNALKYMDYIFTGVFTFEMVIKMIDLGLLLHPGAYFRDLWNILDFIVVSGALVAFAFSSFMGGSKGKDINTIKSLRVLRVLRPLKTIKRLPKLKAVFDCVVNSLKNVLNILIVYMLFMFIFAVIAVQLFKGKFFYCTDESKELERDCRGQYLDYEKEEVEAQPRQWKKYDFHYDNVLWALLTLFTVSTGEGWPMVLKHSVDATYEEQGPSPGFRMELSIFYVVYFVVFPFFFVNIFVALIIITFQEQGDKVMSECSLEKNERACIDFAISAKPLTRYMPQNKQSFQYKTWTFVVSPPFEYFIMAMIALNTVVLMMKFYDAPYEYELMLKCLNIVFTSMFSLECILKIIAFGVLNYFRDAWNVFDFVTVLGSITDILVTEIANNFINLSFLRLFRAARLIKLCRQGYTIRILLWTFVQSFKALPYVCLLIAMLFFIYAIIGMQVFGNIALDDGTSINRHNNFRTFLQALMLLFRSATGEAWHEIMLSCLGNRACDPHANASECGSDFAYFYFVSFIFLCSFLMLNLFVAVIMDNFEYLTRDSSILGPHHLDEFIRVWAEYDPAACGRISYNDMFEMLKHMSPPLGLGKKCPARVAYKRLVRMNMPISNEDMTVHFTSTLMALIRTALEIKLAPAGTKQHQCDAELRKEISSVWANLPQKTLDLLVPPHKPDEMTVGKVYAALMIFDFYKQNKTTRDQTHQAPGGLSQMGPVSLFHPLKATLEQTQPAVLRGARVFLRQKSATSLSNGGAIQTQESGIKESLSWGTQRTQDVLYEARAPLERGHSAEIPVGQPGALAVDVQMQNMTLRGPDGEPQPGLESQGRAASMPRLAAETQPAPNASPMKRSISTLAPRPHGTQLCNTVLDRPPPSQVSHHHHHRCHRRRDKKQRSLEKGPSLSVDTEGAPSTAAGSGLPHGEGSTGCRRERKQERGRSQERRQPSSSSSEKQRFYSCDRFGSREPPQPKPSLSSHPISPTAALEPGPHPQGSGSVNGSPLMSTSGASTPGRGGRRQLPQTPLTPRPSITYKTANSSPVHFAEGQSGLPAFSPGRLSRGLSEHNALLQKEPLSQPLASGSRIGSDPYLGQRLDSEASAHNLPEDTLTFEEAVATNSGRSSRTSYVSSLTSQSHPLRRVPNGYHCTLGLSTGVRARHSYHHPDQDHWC
Chain of Serotonin (5-HT2B) (P41595 whole entry): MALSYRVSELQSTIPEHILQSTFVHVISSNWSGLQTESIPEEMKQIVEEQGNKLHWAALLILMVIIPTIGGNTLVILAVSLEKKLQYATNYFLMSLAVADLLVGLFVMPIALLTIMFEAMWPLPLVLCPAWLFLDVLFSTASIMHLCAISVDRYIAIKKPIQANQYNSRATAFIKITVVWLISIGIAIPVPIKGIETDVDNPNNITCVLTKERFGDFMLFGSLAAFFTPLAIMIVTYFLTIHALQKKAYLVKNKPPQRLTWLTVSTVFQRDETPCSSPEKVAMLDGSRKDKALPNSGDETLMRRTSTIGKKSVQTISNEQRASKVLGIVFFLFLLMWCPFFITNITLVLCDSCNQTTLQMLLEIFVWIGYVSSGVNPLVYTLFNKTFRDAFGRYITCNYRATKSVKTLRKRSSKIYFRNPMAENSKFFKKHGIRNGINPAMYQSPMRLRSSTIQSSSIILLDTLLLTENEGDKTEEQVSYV
Chain of Nicotinic Acetylcholine α3β4 (P32297 32-505): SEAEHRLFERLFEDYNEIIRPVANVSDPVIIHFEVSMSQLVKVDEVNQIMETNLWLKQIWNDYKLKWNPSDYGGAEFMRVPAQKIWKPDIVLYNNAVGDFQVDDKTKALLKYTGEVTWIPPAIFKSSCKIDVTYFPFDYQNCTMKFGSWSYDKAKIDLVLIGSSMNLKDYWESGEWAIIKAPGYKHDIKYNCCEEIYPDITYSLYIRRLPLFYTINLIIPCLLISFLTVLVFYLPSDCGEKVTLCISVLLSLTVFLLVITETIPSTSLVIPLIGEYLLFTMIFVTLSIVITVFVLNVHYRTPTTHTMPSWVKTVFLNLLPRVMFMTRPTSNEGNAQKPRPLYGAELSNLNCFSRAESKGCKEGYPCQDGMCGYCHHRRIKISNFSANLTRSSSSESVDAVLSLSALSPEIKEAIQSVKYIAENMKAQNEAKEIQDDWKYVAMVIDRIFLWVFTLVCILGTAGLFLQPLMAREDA
Chain of Nicotinic Acetylcholine α3β4 (P30926 22-498): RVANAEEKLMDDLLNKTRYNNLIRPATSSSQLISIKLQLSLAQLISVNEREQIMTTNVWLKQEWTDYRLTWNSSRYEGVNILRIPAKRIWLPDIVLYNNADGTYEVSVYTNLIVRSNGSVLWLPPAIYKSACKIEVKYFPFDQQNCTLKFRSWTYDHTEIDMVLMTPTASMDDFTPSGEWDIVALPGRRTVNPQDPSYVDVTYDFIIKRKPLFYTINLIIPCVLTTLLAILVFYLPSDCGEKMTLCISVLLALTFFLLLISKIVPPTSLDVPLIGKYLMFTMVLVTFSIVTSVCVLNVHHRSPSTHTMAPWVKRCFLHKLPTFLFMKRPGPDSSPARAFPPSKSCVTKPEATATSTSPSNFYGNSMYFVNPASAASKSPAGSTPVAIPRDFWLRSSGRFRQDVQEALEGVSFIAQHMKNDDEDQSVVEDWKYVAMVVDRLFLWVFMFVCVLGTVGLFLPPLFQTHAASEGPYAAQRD
Chain of Opiate δ1 (OP1, DOP) (P41143 whole entry): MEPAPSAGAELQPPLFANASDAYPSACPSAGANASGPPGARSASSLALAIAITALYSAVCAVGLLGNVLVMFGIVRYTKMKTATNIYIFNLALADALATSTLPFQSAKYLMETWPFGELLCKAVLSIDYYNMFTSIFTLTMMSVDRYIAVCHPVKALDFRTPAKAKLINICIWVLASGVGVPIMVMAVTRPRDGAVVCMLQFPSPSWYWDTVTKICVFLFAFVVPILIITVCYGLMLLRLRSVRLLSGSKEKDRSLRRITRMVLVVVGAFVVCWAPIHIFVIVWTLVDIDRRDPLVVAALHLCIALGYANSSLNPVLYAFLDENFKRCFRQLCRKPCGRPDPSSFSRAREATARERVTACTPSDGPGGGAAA

## Cn1cc2c(-c3cc(F)c(CN4Cc5ncccc5C4=O)c(F)c3)ccc(C(C)(C)O)c2n1 [compound 7]
Dopamine D3
  inhibition at 10 µM: -10%
Calcium Channel N-Type
  inhibition at 10 µM: -11%
Transporter, GABA
  inhibition at 10 µM: -12%
CYP450
  time-dependent CYP450 inhibition: no evidence of time-dependent inhibition; also recorded: no CYP450 inhibition or time-dependent CYP450 inhibition liabilities
[1]
  inhibition at 10 µM: 8%
Phorbol Ester
  % Inhibition at 10 µM: 12%
1A2
  1A2 induction: 4.9%
Adrenergic α1B
  inhibition at 10 µM: 8%
Purinergic P2X
  % Inhibition at 10 µM: 4%
Bradykinin B2
  inhibition at 10 µM: -18%
[2]; 3 mg/kg po
  F (%) po: 76%
[2]; cynomolgus monkey, plasma, 1 mg/kg iv, read-out: CLp
  clearance: 7.3 mL/min/kg
[2]; cynomolgus monkey, plasma, 1 mg/kg iv, read-out: Elimination t1/2 (converted)
  half-life: 4.9 h
[2]; cynomolgus monkey, plasma, 1 mg/kg iv, read-out: Vss
  Vd: 1.5 L/kg
[2]; [7]
  AUC: 12.4 µM·h
  Cmax: 1100 nM
  Tmax: 4.7 h
Muscarinic M3
  inhibition at 10 µM: 7%
Dopamine D2S
  inhibition at 10 µM: -2%
4 strain
  AMES assay result: negative
Opiate δ1 (OP1, DOP)
  inhibition at 10 µM: -2%
Estrogen ERα
  inhibition at 10 µM: 12%
[3]
  fraction unbound at 6 h, 5 µM: 0.117
Neuropeptide Y Y2
  inhibition at 10 µM: -9%
[4]
  inhibition at 10 µM: -1%
Rat M1; rat M1, % ACh max, n = 5
  rM1 Agonist AChmax (%): 17%
Rat M1; rat M1, n = 5, read-out: rM1 Agonist EC50
  EC50: > 10 µM
Opiate κ (OP2, KOP)
  inhibition at 10 µM: 15%
[5]
  inhibition at 10 µM: 2%
2B6
  2B6 induction: 11.5%
[6]
  inhibition at 10 µM: 4%
3A4
  3A4 induction, mRNA and protein: not to be an inducer of 3A4
Serotonin (5-HT2B)
  inhibition at 10 µM: 20%
